Data published in patent publication US10590079B2, “Cyano-substituted indoles as LSD1 inhibitors” (Novartis AG, priority 2016, dated 2020).
Read-outs that look alike come from different tables or passages of the source.

Experiments:
full-length LSD1 = target: T1, full-length LSD1 (Homo sapiens, UniProt O60341); experiment: FL-LSD1 LC-MS assay; type: biochemical; settings: 0.4 nM FL-LSD1, 0.25 μM FAD, 0.5 μM H3K4me1 peptide, 60 min; read-out: (a) IC50 LC-MS Qualified assay
T1 construct: the full-length LSD1 and 0.5 μM FAD in reaction buffer
Protocol: Representative compounds of the present invention were serially and separately diluted 3-fold in DMSO to obtain a total of twelve concentrations. […] A 5 μL solution of 1 μM of the peptide substrate H3K4me1 (histone H3[1-21]-biotin) in reaction buffer was added to each initiate reaction. […] The conversion ratio of H3K4me1 substrate to the H3K4me0 product was calculated by dividing the peak area of the H3K4me0 peptide by the total peak area of all those two peptides on the assumption that the ionization efficiency of those peptides is the same. The data were then fit to a dose response equation using the program Helios to get the IC50 values of the test compound.

Molm13 cell = experiment: Anti-proliferation assay in Molm13 cell; type: cell-based, human; settings: 6 days, cell titer glow, read-out: (b) IC50 anti proliferative assay in molm13 cell
Protocol: Anti-Proliferation Assay in Molm13 Cell
After cell seeding, a compound of the present invention was added to the cell media (in concentrations ranging from 0 to 100 μM, 3× dilution series). After 6 days, 100 ul/well cell titer glow (Promega, cat#G7573) was added into the cell culture, and luminerence was read on Envision (Pelkin Elmer) to determine the viable cells. The percentage inhibition was calculated against the samples treated with DMSO.

CD11b = CD11b FACS assay; type: cell-based; settings: Homo sapiens, THP-1; Thp1 cell, 96 hrs; read-out: (c) IC50 CD11b FACS assay
Protocol: Representative compounds of the present invention were serially and separately diluted 5-fold in DMSO to obtain a total of 6 concentrations. Then the compounds were added to Thp1 cell cultured in 96-well round bottom plate (Costar, Cat#3099) at 1:1000 dilution to obtain the highest concentration of 10 μM. The cells were further cultured for 96 hrs before FACS procedure.
FACS protocol: FACS was performed using standard flowcytometry. Cell was collected and washed with FACS buffer twice (2% heat inactivated FBS in PBS) in 96-well plate, and stained with antibody against CD11b, or isotype control, then washed with FACS buffer for 3 times before reading on Guava 8HT (Merck Millipore) Results were analyzed using Flowjo, and mean fluoreance was calculated and normalized to the cells treated with DMSO. The fold value were then analyzed via Graphpad Prism and fit to a dose response curve to get IC50 value of the test compound. Antibodies for FACS: PE mouse IgG1 k chain (BD Bioscience, #555749), PE mouse anti human CD11b (BD Bioscience, #555388)

IC50 (full-length LSD1) [nM]	IC50 (Molm13 cell; Homo sapiens, MOLM-13, 144 h) [nM]	IC50 (CD11b) [nM]	IC50 (Molm13 cell) [nM]	SMILES
3	123	315	–	COc1ccc(-n2cc(-c3cccc(N)c3C)c3cc(C#N)c(C)cc32)cc1 [Example 65, 3-(3-amino-2-methylphenyl)-1-(4-methoxyphenyl)-6-methyl-1H-indole-5-carbonitrile]
3	51	801	–	COc1ccc(-n2cc(-c3cncc(N)c3C)c3cc(C#N)c(C)cc32)cc1 [Example 71, 3-(5-amino-4-methylpyridin-3-yl)-1-(4-methoxyphenyl)-6-methyl-1H-indole-5-carbonitrile]
60	270	–	–	Cc1c(N)cccc1-c1cn(C2CCCC(O)C2)c2ccc(C#N)cc12 (stereo not drawn) [Example 83, Trans-3-(3-amino-2-methylphenyl)-1-(3-hydroxycyclohexyl)-1H-indole-5-carbonitrile]
15	76	–	–	Cc1cc2c(cc1C#N)c(-c1cncc(N)c1C)cn2C1CCC(O)C1 (single isomer, unassigned) [Example 87, Cis-3-(5-amino-4-methylpyridin-3-yl)-1-(3-hydroxycyclopentyl)-6-methyl-1H-indole-5-carbonitrile]
14	926	–	–	Cc1cc2c(cc1C#N)c(-c1cccc(N)c1C)cn2C1CCNCC1 [Example 97, 3-(3-amino-2-methylphenyl)-6-methyl-1-(piperidin-4-yl)-1H-indole-5-carbonitrile]
15	–	–	90	Cc1cc2c(cc1C#N)c(-c1cncc(N)c1C)cn2C1CCC(O)C1 (single isomer, unassigned) [Example 88, Trans-3-(5-amino-4-methylpyridin-3-yl)-1-(3-hydroxycyclopentyl)-6-methyl-1H-indole-5-carbonitrile]
24	390	–	–	Cc1c(N)cccc1-c1cn(C2CCC(O)C2)c2ccc(C#N)cc12 (racemic) [Example 80, Trans-3-(3-amino-2-methylphenyl)-1-(3-hydroxycyclopentyl)-1H-indole-5-carbonitrile]
16	73	–	–	Cc1cc2c(cc1C#N)c(-c1cncc(N)c1C)cn2[C@H]1CC[C@H](O)CC1 [Example 94, Trans-3-(5-amino-4-methylpyridin-3-yl)-1-(4-hydroxycyclohexyl)-6-methyl-1H-indole-5-carbonitrile]

SMILES	IC50 (full-length LSD1) [nM]	IC50 (Molm13 cell; Homo sapiens, MOLM-13, 144 h) [nM]	IC50 (CD11b) [nM]	IC50 (Molm13 cell) [nM]
Cc1cc2c(cc1C#N)c(-c1cccc(N)c1C)cn2[C@H]1CC[C@H](O)CC1 [Example 93, Trans-3-(3-amino-2-methylphenyl)-1-(4-hydroxycyclohexyl)-6-methyl-1H-indole-5-carbonitrile]	–	–	73	–
CN[C@H]1CC[C@H](n2cc(-c3cccc(N)c3C)c3cc(C#N)c(C)cc32)CC1 [Example 78, Trans-3-(3-amino-2-methylphenyl)-6-methyl-1-(4-(methylamino)cyclohexyl)-1H-indole-5-carbonitrile]	–	29	–	–
Cc1cc2c(cc1C#N)c(-c1cccc(N)c1C)cn2[C@H]1CC[C@@H](O)CC1 [Example 95, Cis-3-(3-amino-2-methylphenyl)-1-(4-hydroxycyclohexyl)-6-methyl-1H-indole-5-carbonitrile]	–	49	–	–
Cc1cc2c(cc1C#N)c(-c1cccc(N)c1C)cn2[C@H]1C[C@H](O)C1 [Example 100, Trans-3-(3-amino-2-methylphenyl)-1-(3-hydroxycyclobutyl)-6-methyl-1H-indole-5-carbonitrile]	–	48	–	–
